Data: patent publication US9169217B2, “Arylalkyl esters of 4-amino-6-(substituted phenyl)-picolinates and 6-amino-2-(substituted phenyl)-pyrimidinecarboxylates and their use as selective herbicides for crops” (Dow AgroSciences LLC, priority 2011, dated 2015)
Read-outs that look alike come from different tables or passages of the source.

Tests used:
Assay type in all cases: in vivo
[1] = tested on: Cyperus difformis L. (small-flower flatsedge); assay: Postemergence foliar-applied herbicidal activity in direct seeded rice (Example 16); settings: post-emergence, 504 h, read-out: Visual Injury (%) CYPDI
Summary of the method: (§1)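 Greenhouse plants at 2nd–3rd true leaf stage (10–17 d, ~29/26 °C, 14-h photoperiod) sprayed postemergence with ester forms in acetone–DMSO plus 1.25% crop oil concentrate at 187 L/ha. Visual injury scored 0–100% versus untreated plants after 3 weeks; GR50/GR80 derived by probit analysis.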

[2] = tested on: Echinochloa crus-galli (L.) P.BEAUV. (barnyardgrass); assay: as above; settings: ECHCG, probit analysis; for GR50: 50% growth reduction; for GR80: 80% growth reduction; for GR90: 90% growth reduction
Summary of the method: as §1

[3] = tested on: Scirpus juncoides ROXB. (Japanese bulrush); assay: as above; settings: Schoenoplectiella juncoides, post-emergence, 504 h, read-out: Visual Injury (%) SCPJU
Summary of the method: as §1

[4] = tested on: Cirsium arvense (Thistle, Canada); assay: Postemergence herbicidal activity in pastures (Example 15); settings: pasture cropping systems, postemergence spray, 35 DAA
Description: (§2) Seeds of the desired test plant species were planted in Sun Gro Metro-Mix® 360 planting mixture, which typically has a pH of 6.0 to 6.8 and an organic matter content of about 30 percent, in plastic pots with a surface area of 139.7 cm^2. When required to ensure good germination and healthy plants, a fungicide treatment and/or other chemical or physical treatment was applied. The plants were grown with an approximate 14 h photoperiod which was maintained at about 24° C. during the day and 21° C. during the night. Nutrients and water were added on a regular basis and supplemental lighting was provided with overhead metal halide 1000-Watt lamps as necessary. The plants were employed for testing when they reached the four or six true leaf stage, depending on species.
(§3) Treatments consisted of esters of compounds 39 and G. Compound G is methyl 4-amino-3-chloro-6-(4-chloro-2-fluoro-3-methoxyphenyl)picolinate. A weighed amount, determined by the highest rate to be tested, of each test compound was placed in a 25 mL glass vial and was dissolved in 8 mL of a 97:3 v/v mixture of acetone and DMSO to obtain concentrated stock solutions. […] The concentrated stock solutions obtained were diluted with 16 mL of an aqueous mixture containing acetone, water, isopropyl alcohol, DMSO, Agri-dex crop oil concentrate, and Triton® X-77 surfactant in a 64.7:26.0:6.7:2.0:0.7:0.01 v/v ratio to obtain spray solutions containing the highest application rates. Additional application rates were obtained by serial dilution of 12 mL of the high rate solution into a solution containing 4 mL of a 97:3 v/v mixture of acetone and DMSO and 8 mL of an aqueous mixture containing acetone, water, isopropyl alcohol, DMSO, Agri-dex crop oil concentrate, and Triton® X-77 surfactant in a 48.5:39.0:10.0:1.5:1.0:0.02 v/v ratio to obtain ½×, ¼×, ⅛× and 1/16× rates of the high rate. Compound requirements are based upon a 12 mL application volume at a rate of 187 L/ha. Formulated compounds were applied to the plant material with an overhead Mandel track sprayer equipped with 8002E nozzles calibrated to deliver 187 L/ha over an application area of 0.503 m^2 at a spray height of 18 inches (43 cm) above average plant canopy height. Control plants were sprayed in the same manner with the blank.
(§4) The treated plants and control plants were placed in a greenhouse as described above and watered by sub-irrigation to prevent wash-off of the test compounds. After 35 d, the condition of the test plants as compared with that of the untreated plants was determined visually and scored on a scale of 0 to 100 percent where 0 corresponds to no injury and 100 corresponds to complete kill.

[5] = tested on: Solidago L. spec (Goldenrod); assay: as above; settings: pasture cropping systems, postemergence spray, 35 DAA
Description: as §2, §3, §4

[6] = tested on: Cyperus iria L. (rice flatsedge); assay: Postemergence foliar-applied herbicidal activity in direct seeded rice (Example 16); settings: rice cropping systems, 8.75 g ae/ha, 21 DAA, may represent multiple trials
Summary of the method: as §1

[7] = rice cropping systems, foliar-applied, 8.75 g ae/ha, 21 DAA, may represent multiple trials

| SMILES | GR50 [2] [g ae/ha] | GR80 [2] [g ae/ha] | GR90 [2] [g ae/ha] | Visual Injury (%) CIRAR ([4]; 17.5 g ae/ha) [%] | Visual Injury (%) CIRAR ([4]; 35 g ae/ha) [%] | Visual Injury (%) SOOSS ([5]; 70 g ae/ha) [%] | Visual Injury (%) SOOSS ([5]; 140 g ae/ha) [%] | Visual Injury (%) CYPIR [6] [%] | also measured |
| --- | --- | --- | --- | --- | --- | --- | --- | --- | --- |
| COc1c(Cl)ccc(-c2nc(C(=O)OCc3ccccc3)c(Cl)c(N)c2F)c1F [Compound 1, benzyl 4-amino-3-chloro-6-(4-chloro-2-fluoro-3-methoxyphenyl)-5-fluoropicolinate] | <4.38 | <4.38 | 6.1 | – | – | – | – | – | pest or weed control at 8.75 g/ha [1]: 100%; pest or weed control at 8.75 g/ha [3]: 93% |
| COc1c(Cl)ccc(-c2cc(N)c(Cl)c(C(=O)OCc3ccccc3)n2)c1F [Compound 39] | – | – | – | 100 | 95 | 85 | 100 | – | – |
| Nc1c(F)c(-c2ccc(C3CC3)cc2)nc(C(=O)OCc2ccccc2)c1Cl [Compound 42, benzyl 4-amino-3-chloro-6-(4-cyclopropylphenyl)-5-fluoropicolinate] | – | – | – | – | – | – | – | 100 | – |
| COC(=O)c1nc(-c2ccc(C3CC3)cc2)c(F)c(N)c1Cl [Compound B, methyl 4-amino-3-chloro-6-(4-cyclopropylphenyl)-5-fluoropicolinate] | – | – | – | – | – | – | – | 60 | – |
| COC(=O)c1nc(-c2ccc(Cl)c(OC)c2F)cc(N)c1Cl [Compound G, methyl 4-amino-3-chloro-6-(4-chloro-2-fluoro-3-methoxyphenyl)picolinate, reference compound] | – | – | – | 40 | 60 | 30 | 50 | – | – |
| COC(=O)c1nc(-c2ccc(Cl)c(OC)c2F)c(F)c(N)c1Cl [E, methyl 4-amino-3-chloro-6-(4-chloro-2-fluoro-3-methoxyphenyl)-5-fluoropicolinate, reference compound] | 3.7 | 17.1 | 38.1 | – | – | – | – | – | pest or weed control at 8.75 g/ha [1, 7]: 89%; pest or weed control at 8.75 g/ha [3, 7]: 61% |
